Measured values as given in patent US20240109912A1, “TRICYCLIC PYRIMIDINES AS CYCLIN-DEPENDENT KINASE 7 (CDK7) INHIBITORS” (JANSSEN PHARMACEUTICA NV, priority 2020, published 2024).
“And” between values parts separate entries of the source, which are not always exact repeats. Equal values may be shown once. Read-outs that look alike come from different tables or passages of the source.

Key:
[1] = tested on: RNA polymerase II Serine 5 phosphorylation in A549 cells overexpressing CDK7 mutant (C312S); assay: Imaging-based cellular RNA PolII Ser5 phosphorylation assay in A549 cells overexpressing CDK7-mutant (C312S); type: cell-based, human; settings: for IC50: Homo sapiens, A549, A549 cells overexpressing CDK7 mutant (C312S), read-out: CDK7_ A549 mutant hCDK7(pIC50) (converted)
Method: Data were calculated and analyzed in Phaedra.
From this an IC50 value can be obtained.
In parallel this assay was performed in A549 cells overexpressing CDK7-mutant (C312S) to evaluate the effect of the covalent bond on potency and to screen for potential off-target effects. Mutation of Cysteine to Serine (C312S), a less nucleophilic amino acid, prevents CDK7 inhibitors from covalently binding to CDK7 and from inhibiting CDK7 activity in an irreversible manner. A stably transduced A549 cell pool was generated that overexpresses CDK7 mutant (C312S), but also expresses endogenous CDK7-WT. Covalent binders targeting the cysteine at position 312 will show a shift in potency in A549 cells overexpressing mutant C312S CDK7.

[2] = tested on: RNA polymerase II Serine 5 phosphorylation (CDK7) in A549 cells
Text: To evaluate inhibition of CDK7 kinase activity, a 384-well automated imaging assay was used. This assay detects Serine 5 phosphorylation on a unique heptapeptide sequence in the C-terminal domain of Rpb1 subunit of RNA polymerase II, the downstream substrate of CDK7. This heptapeptide sequence is repeated up to 52 times in the CTD of Rpb1.
RNA Polymerase II Serine 5 phosphorylation was detected using a specific rabbit Phospho-Rpb1 CTD (Ser5) antibody. A549 adenocarcinoma human alveolar basal epithelial cells were seeded in 20 μl medium (DMEM supplemented with 1% Fetal Bovine Serum (heat inactivated 30′ 56° C.), 2 mM L-glutamine, 50 U/ml penicillin 50 μg/ml streptomycin, 1 mM sodium pyruvate and 50 mM hepes) at 1000 cells/well and cultured in poly-D-lysine coated μclear 384 black plates for 20 hours at 37° C. and 5% CO2.
After incubation cells were challenged with compound for 3 hours at 37° C. and 5% CO2. DMSO was used as high control and as low control 10 μM of the following reference compound was used:
40 nl of test compounds and controls were spotted in cell plates using Echo Liquid Handler (Echo 550, Labcyte). Incubation was followed by 20 minutes fixation with 20 μl 10% formaldehyde at room temperature. Medium/formaldehyde solution was removed, plates were washed 3 times with 30 μl D-PBS (w/o Ca^2+ and Ma^2+) and permeabilization was done by adding 20 μl ice cold methanol for 20 minutes. Cells were washed again 3 times with 30 μl D-PBS and 20 μl blocking buffer (25 ml fetal bovine serum in 500 ml D-PBS) was added for 1 hour.
After removing blocking buffer 20 μl 1/1000 primary antibody rabbit Phospho-Rpb1 CTD (Ser5) antibody was added which binds to the phosphorylated Serine5 of the heptapeptide sequences in the CTD of Rpb1. […] Last, plates were washed 2 times with 30 μl D-PBS and wells were filled with 40 μL D-PBS, plates were sealed (Thermowell sealing tape) and stored at 4° C. until reading. Plates were read with Opera Phenix (Perkin Elmer) with 10× air objective. Data were calculated and analyzed in Phaedra.
IC50 values were calculated using the following formula
Average value of all HC's and all LC's are used for normalizations.
% Effect=100−(sample-LC)/(HC-LC)×100
% Control=(sample/HC)×100
From this an IC50 value can be obtained. An estimate of the slope of the plot in terms of the Hill coefficient is also obtained.

[3] = biological target: CDK7/cyclinH/MAT1 trimeric complex (Homo sapiens (Human), UniProt P50613); assay: In vitro CDK7 assay, potency of irreversible covalent inhibitors (kinact/KI)
[4] = CDK7 (20 nM enz.) (KI, μM), 20 nM enz.
[5] = read-out: CDK7 (20 nM enz.) (kinact, s^−1), 20 nM enz.
[6] = read-out: CDK7 (20 nM enz.) (kinact/ KI, M^−1*s^−1), 20 nM enz.
[7] = read-out: CDK7 (kinact, s^−1), Table B
[8] = read-out: CDK7 (kinact/KI, M^−1*s^−1), Table B

Chain of CDK7/cyclinH/MAT1 trimeric complex (P50613 whole entry): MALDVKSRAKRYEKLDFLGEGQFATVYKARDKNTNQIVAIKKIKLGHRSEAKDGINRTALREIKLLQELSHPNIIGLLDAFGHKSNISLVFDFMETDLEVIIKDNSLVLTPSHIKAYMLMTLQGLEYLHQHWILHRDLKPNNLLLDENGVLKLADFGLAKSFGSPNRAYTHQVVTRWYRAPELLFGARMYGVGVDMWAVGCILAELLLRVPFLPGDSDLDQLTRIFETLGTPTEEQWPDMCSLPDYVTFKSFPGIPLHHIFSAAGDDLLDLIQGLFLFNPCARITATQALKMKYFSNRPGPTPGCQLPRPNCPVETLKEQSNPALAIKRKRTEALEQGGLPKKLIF
Chain of CDK7/cyclinH/MAT1 trimeric complex (P51946 whole entry partner): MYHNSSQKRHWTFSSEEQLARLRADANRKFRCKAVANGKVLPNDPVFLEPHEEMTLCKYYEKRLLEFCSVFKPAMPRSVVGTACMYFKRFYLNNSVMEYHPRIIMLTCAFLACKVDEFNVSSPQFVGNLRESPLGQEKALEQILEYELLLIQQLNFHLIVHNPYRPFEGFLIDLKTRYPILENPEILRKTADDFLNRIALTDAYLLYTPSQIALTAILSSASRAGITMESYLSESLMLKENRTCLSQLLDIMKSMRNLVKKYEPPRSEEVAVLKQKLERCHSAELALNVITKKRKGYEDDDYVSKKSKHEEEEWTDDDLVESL
Chain of CDK7/cyclinH/MAT1 trimeric complex (P51948 whole entry partner): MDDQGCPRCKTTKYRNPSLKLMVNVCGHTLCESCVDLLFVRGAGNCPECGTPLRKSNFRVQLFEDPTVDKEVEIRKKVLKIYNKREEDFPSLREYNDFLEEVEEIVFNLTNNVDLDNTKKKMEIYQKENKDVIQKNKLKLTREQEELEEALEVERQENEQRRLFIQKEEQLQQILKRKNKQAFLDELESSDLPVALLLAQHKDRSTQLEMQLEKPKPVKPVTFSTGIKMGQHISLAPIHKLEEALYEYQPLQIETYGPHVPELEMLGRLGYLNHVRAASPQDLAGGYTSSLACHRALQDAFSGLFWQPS

SMILES | IC50 [1] [nM] | IC50 [2] | CDK7 (20 nM enz.) (kinact, s^−1) ([3]; 20 nM enz.) [s⁻¹] | CDK7 (20 nM enz.) (kinact/ KI, M^−1*s^−1) ([3]; 20 nM enz.) [M⁻¹ s⁻¹] | Ki [3, 4] | kinact [3, 5] [s⁻¹] | kinact/KI [3, 6] [M⁻¹ s⁻¹] | Ki ([3]; CDK7 (KI(μM)), Table B) [µM] | kinact [3, 7] [s⁻¹] | kinact/KI [3, 8] [M⁻¹ s⁻¹] | CDK7_ A549 mutant hCDK7(pIC50) ([1]; A549 cells overexpressing CDK7 mutant (C312S)) | kinact/KI ([3]; read-out: CDK7 (20 nM enz.) (kobs/[I], M^−1*s^−1), 20 nM enz.) [M⁻¹ s⁻¹]
CC#CC(=O)N1CC(N2CCC(c3cc(C)c4c(c3)Nc3ncnc(N5CCS(=O)(=O)CC5)c3[C@H](C)O4)CC2)C1 (single isomer, unassigned) [compound 150] | > 10000 | 316 nM and 457 nM | 4.7e-05 | 261.659 | 0.283 µM and 0.18 µM | 6.55e-05 | 231 |  |  |  |  | 
C#Cc1cc(C2CCN(C3CN(C(=O)C=C)C3)CC2)cc2c1O[C@H](C)c1c(ncnc1N1CCS(=O)(=O)CC1)N2 (single isomer, unassigned) [compound 189] | > 10000 | 195 nM and 200 nM |  |  | 0.0806 µM | 8.1e-05 | 879 |  |  |  |  | 
C=CC(=O)NCCN1CCC(c2ccc3c(c2)Nc2ncnc(N4CCOCC4)c2CO3)CC1 [compound 3] | > 10000 | 912 nM |  |  |  |  |  | 1.03 | 0.000166 | 161 |  | 
C=CC(=O)N1CC[C@H](N2CCC(c3ccc4c(c3)Nc3ncnc(N5CCOCC5)c3CO4)CC2)C1 [compound 5] | ~8910 | 891 nM |  |  |  |  |  | 0.595 | 0.000243 | 408 |  | 
C=CC(=O)N1CC(N2CCN(c3ccc4c(c3)Nc3ncnc(N5CCOCC5)c3CO4)CC2)C1 [compound 6] | > 10000 | 3800 nM |  |  |  |  |  | 2.73 | 0.000504 | 185 |  | 
C=CC(=O)N1CC(N2CCC(c3ccc4c(c3)Nc3ncnc(-c5ccc(=O)n(C)c5)c3CO4)CC2)C1 [compound 8] | > 10000 | 5500 nM |  |  |  |  |  | 0.251 | 0.000188 | 749 |  | 
C=CC(=O)N1CC(N2CC[C@@H](c3ccc4c(c3)Nc3ncnc(N5CCOCC5)c3CO4)C2)C1 [compound 10] | > 10000 | 1820 nM |  |  |  |  |  | 0.38 | 0.000155 | 409 |  | 
C=CC(=O)N1CCC(N2CCC(c3cc(C)c4c(c3)Nc3ncnc(N5CCOCC5)c3CO4)CC2)C1 (stereo not drawn) [compound 11] | 8910 | 288 nM |  |  | 0.0411 µM | 3.59e-05 | 874 |  |  |  |  | 
C=CC(=O)N1CC[C@H](N2CCC(c3cc(C)c4c(c3)Nc3ncnc(N5CCOCC5)c3CO4)CC2)C1 [compound 12] | > 10000 | 457 nM and 282 nM | 0.0001275 | 256.184 | 0.191 µM and 0.498 µM | 7.04e-05 | 368 |  |  |  |  | 
C=CC(=O)N1CC[C@@H](N2CCC(c3cc(C)c4c(c3)Nc3ncnc(N5CCOCC5)c3CO4)CC2)C1 [compound 13] | > 10000 | 275 nM and 234 nM | 8.3e-05 |  | 0.0781 µM and 0.315 µM | 5.64e-05 |  |  |  |  |  | 
C=CC(=O)N1CCC(N2CCC(c3ccc4c(c3)Nc3ncnc(N5CCOCC5)c3CO4)CC2)C(F)C1 (stereo not drawn) [compound 15] | > 10000 | 955 nM |  |  | 0.632 µM | 5.72e-05 | 90.5 |  |  |  |  | 
C=CC(=O)N1CC[C@@H](N2CC(c3cc(C)c4c(c3)Nc3ncnc(N5CCOCC5)c3CO4)C2)C1 [compound 17] | > 10000 | 380 nM |  |  | 0.716 µM | 6.7e-05 | 93.7 |  |  |  |  | 
C=CC(=O)N1CC[C@H](N2CC(c3cc(C)c4c(c3)Nc3ncnc(N5CCOCC5)c3CO4)C2)C1 [compound 18] | > 10000 | 380 nM |  |  | 0.529 µM | 8.2e-05 | 155 |  |  |  |  | 
C=CC(=O)N1CCC(N2CC(c3cc(Cl)c4c(c3)Nc3ncnc(C5CCOCC5)c3CO4)C2)CC1 [compound 19] | > 10000 | 871 nM |  |  | 0.542 µM | 8.14e-05 | 150 |  |  |  |  | 
C=CC(=O)N1CC(N2CCC(c3cc(F)c4c(c3)Nc3ncnc(N5CCOCC5)c3CO4)CC2)C1 [compound 20] | > 10000 | 646 nM |  |  | 0.0693 µM | 4.85e-05 | 699 |  |  |  |  | 
C=CC(=O)N1CC(N2CCC(c3cc(F)c4c(c3)Nc3ncnc(-c5cnn(C)c5)c3CO4)CC2)C1 [compound 21] | > 10000 | 832 nM |  |  | 0.408 µM | 5.42e-05 | 133 |  |  |  |  | 
C=CC(=O)N1CC(N2CC[C@@H](c3cc(C)c4c(c3)Nc3ncnc(N5CCOCC5)c3CO4)C2)C1 [compound 22] | > 10000 | ~617 nM |  |  | 0.208 µM | 6.38e-05 | 307 |  |  |  |  | 
C=CC(=O)N1CC(N2CC[C@H](c3cc(C)c4c(c3)Nc3ncnc(N5CCOCC5)c3CO4)C2)C1 [compound 23] | > 10000 | 603 nM |  |  | 0.255 µM | 5.86e-05 | 230 |  |  |  |  | 

SMILES | IC50 [1] [nM] | IC50 [2] | CDK7 (20 nM enz.) (kinact, s^−1) ([3]; 20 nM enz.) [s⁻¹] | CDK7 (20 nM enz.) (kinact/ KI, M^−1*s^−1) ([3]; 20 nM enz.) [M⁻¹ s⁻¹] | Ki [3, 4] | kinact [3, 5] [s⁻¹] | kinact/KI [3, 6] [M⁻¹ s⁻¹] | Ki ([3]; CDK7 (KI(μM)), Table B) [µM] | kinact [3, 7] [s⁻¹] | kinact/KI [3, 8] [M⁻¹ s⁻¹] | CDK7_ A549 mutant hCDK7(pIC50) ([1]; A549 cells overexpressing CDK7 mutant (C312S)) | kinact/KI ([3]; read-out: CDK7 (20 nM enz.) (kobs/[I], M^−1*s^−1), 20 nM enz.) [M⁻¹ s⁻¹]
C=CC(=O)N1CCC(N2CC[C@H](c3cc(C)c4c(c3)Nc3ncnc(N5CCOCC5)c3CO4)C2)CC1 [compound 24] | > 10000 | 646 nM |  |  | 0.533 µM | 4.78e-05 | 89.6 |  |  |  |  | 
C=CC(=O)N1CCC(N2CC[C@@H](c3cc(C)c4c(c3)Nc3ncnc(N5CCOCC5)c3CO4)C2)CC1 [compound 25] | > 10000 | 741 nM |  |  | 1.22 µM | 6.34e-05 | 52.1 |  |  |  |  | 
C=CC(=O)N1CCC(N2CC(c3cc(F)c4c(c3)Nc3ncnc(N5CCOCC5)c3[C@H](C)O4)C2)CC1 [compound 26] | > 10000 | 288 nM |  |  | 0.336 µM | 4.84e-05 | 203 |  |  |  |  | 
C=CC(=O)N1CCC(N2CC(c3cc(F)c4c(c3)Nc3ncnc(N5CCOCC5)c3[C@@H](C)O4)C2)CC1 [compound 27] | > 10000 | 4790 nM |  |  | 5.21 µM | 4.89e-05 | 9.39 |  |  |  |  | 
C=CC(=O)N1CCC(N2CC(c3cc(C)c4c(c3)Nc3ncnc(N5CCOCC5)c3CO4)C2)C(F)C1 (stereo not drawn) [compound 28] | > 10000 | 759 nM |  |  | 0.686 µM | 8.88e-05 | 129 |  |  |  |  | 
C=CC(=O)N1CCC(N2CC(c3cc(C)c4c(c3)Nc3ncnc(N5CCOCC5)c3CO4)C2)C(F)C1 (stereo not drawn) [compound 29] |  | 1120 nM | 7.3e-05 | 93.6387 | 0.78 µM |  |  |  |  |  | <5 | 
C=CC(=O)N1CC(N2CC[C@@H](c3cc4c(c(C)n3)OCc3c(ncnc3N3CCS(=O)(=O)CC3)N4)C2)C1 [compound 30] | > 10000 | 1510 nM |  |  | 0.175 µM | 5.79e-05 | 330 |  |  |  |  | 
C=CC(=O)N1CC(N2CC[C@H](c3cc4c(c(C)n3)OCc3c(ncnc3N3CCS(=O)(=O)CC3)N4)C2)C1 [compound 31] | > 10000 | 2750 nM |  |  | 0.226 µM | 5.87e-05 | 260 |  |  |  |  | 
C=CC(=O)N1CC(N2CCC(c3ccc4c(c3)Nc3ncnc(C5CCOCC5)c3CO4)CC2)C1 [compound 38] | > 10000 | 1150 nM |  |  |  |  |  | 0.251 | 9.7e-05 | 386 |  | 
C=CC(=O)N1CC(N2CCC(c3cc4c(c(C5CC5)c3)OCc3c(ncnc3N3CCOCC3)N4)CC2)C1 [compound 47] | > 10000 | 245 nM |  |  | 0.175 µM | 7.35e-05 | 420 |  |  |  |  | 
C=CC(=O)N1CC(N2CCC(c3cc(C)c4c(c3)Nc3ncnc(N5CCC(S(C)(=O)=O)C5)c3CO4)CC2)C1 (stereo not drawn) [compound 65] | > 10000 | 6460 nM |  |  | 4.12 µM | 0.0001 | 24.3 |  |  |  |  | 
C=CC(=O)N1CC(N2CCC(c3cc(C)c4c(c3)Nc3ncnc(N5CCCC(C#N)C5)c3CO4)CC2)C1 (stereo not drawn) [compound 67] | > 10000 | 1320 nM |  |  | 1.2 µM | 0.000103 | 85.8 |  |  |  |  | 
C=CC(=O)N1CC(N2CCC(c3cc(C)c4c(c3)Nc3ncnc(N5CCC(C#N)CC5)c3CO4)CC2)C1 [compound 69] | > 10000 | 1580 nM |  |  | 1.1 µM | 6.3e-05 | 57.2 |  |  |  |  | 
C=CC(=O)N1CC(N2CCC(c3cc(C)c4c(c3)Nc3ncnc(N5CCS(=N)(=O)CC5)c3CO4)CC2)C1 [compound 72] | 832 | 138 nM |  |  |  |  |  |  |  |  |  | 1090
C=CC(=O)N1CCC(N2CC(c3cc(C#N)c4c(c3)Nc3ncnc(-c5cnn(C)c5)c3CO4)C2)CC1 [compound 73] | > 10000 | 1660 nM |  |  | 1.24 µM | 3.75e-05 | 30.2 |  |  |  |  | 
C=CC(=O)N1CC(N2CCC(c3cc(C#N)c4c(c3)Nc3ncnc(-c5cnn(C)c5)c3CO4)CC2)C1 [compound 74] | > 10000 | 1170 nM |  |  | 0.132 µM | 5.42e-05 | 412 |  |  |  |  | 
C=CC(=O)N1CC(N2CCC(c3cc(C)c4c(c3)Nc3ncnc(-c5ccnn5C)c3CO4)CC2)C1 [compound 80] | > 10000 | 219 nM |  |  | 0.32 µM | 4.18e-05 | 131 |  |  |  |  | 
